Measurements: PubChem BioAssay AID330 (DTP/NCI, 2004)
Where “and” joins values, the source holds several entries; their conditions need not be identical. Identical values can stand only once. Inconclusive results and toxic doses are left out. Rule for the calls: active = survival T/C of 150% or more; inactive = T/C below 125% in these data.

Tested on: P388 leukemia ip, CD2F1 mice, survival T/C
Test: NCI In Vivo Anticancer Drug Screen. Data for tumor model P388 Leukemia (intraperitoneal) in CD2F1 (CDF1) mice
Conditions: endpoint: median survival time, higher = longer survival
Summary of the method: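 Mice carrying the transplanted tumor received test compound or vehicle. Survival was recorded in each group, and the value is the treated-group measurement divided by that of the vehicle-treated control group.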

[1] = dose: 50.0 mg/kg/injection, schedule: Q01DX009 (ip), vehicle: saline
[2] = dose: 60.0 mg/kg/injection, schedule: Q01DX005 (ip), vehicle: Klucel (hydroxypropylcellulose) (HPC)
[3] = dose: 120.0 mg/kg/injection, schedule: Q01DX005 (ip), vehicle: Klucel (hydroxypropylcellulose) (HPC)
[4] = dose: 240.0 mg/kg/injection, schedule: Q01DX005 (ip), vehicle: Klucel (hydroxypropylcellulose) (HPC)
[5] = dose: 50.0 mg/kg/injection, schedule: Q01DX009 (ip), vehicle: saline with Tween-80
[6] = dose: 100.0 mg/kg/injection, schedule: Q01DX009 (ip), vehicle: saline with Tween-80
[7] = dose: 200.0 mg/kg/injection, schedule: Q01DX009 (ip), vehicle: saline with Tween-80
[8] = dose: 50.0 mg/kg/injection, schedule: Q01DX005 (ip), vehicle: Klucel (hydroxypropylcellulose) (HPC)
[9] = dose: 100.0 mg/kg/injection, schedule: Q01DX005 (ip), vehicle: Klucel (hydroxypropylcellulose) (HPC)
[10] = dose: 200.0 mg/kg/injection, schedule: Q01DX005 (ip), vehicle: Klucel (hydroxypropylcellulose) (HPC)
[11] = dose: 100.0 mg/kg/injection, schedule: Q01DX001 (ip), vehicle: saline with Tween-80
[12] = dose: 200.0 mg/kg/injection, schedule: Q01DX001 (ip), vehicle: saline with Tween-80
[13] = dose: 400.0 mg/kg/injection, schedule: Q01DX001 (ip), vehicle: saline with Tween-80
[14] = dose: 12.5 mg/kg/injection, schedule: Q01DX009 (ip), vehicle: saline

Measured: T/C

Cn1c(=O)[nH]c2nncnc2c1=O
inactive: dose: 2.0 mg/kg/injection, schedule: Q01DX009 (ip), vehicle: water 101 % of control | dose: 4.0 mg/kg/injection, schedule: Q01DX009 (ip), vehicle: water 100 % of control | dose: 8.0 mg/kg/injection, schedule: Q01DX009 (ip), vehicle: water 104 % of control | dose: 12.5 mg/kg/injection, schedule: Q01DX009 (ip), vehicle: water 99 % of control | dose: 16.0 mg/kg/injection, schedule: Q01DX009 (ip), vehicle: water 101 % of control | dose: 25.0 mg/kg/injection, schedule: Q01DX009 (ip), vehicle: water 117 % of control | dose: 32.0 mg/kg/injection, schedule: Q01DX009 (ip), vehicle: water 104 % of control | dose: 64.0 mg/kg/injection, schedule: Q01DX009 (ip), vehicle: water 123 % of control | dose: 375.0 micrograms/kg/injection, schedule: Q01DX009 (ip), vehicle: saline 97 % of control | dose: 750.0 micrograms/kg/injection, schedule: Q01DX009 (ip), vehicle: saline 100 % of control | dose: 1500.0 micrograms/kg/injection, schedule: Q01DX009 (ip), vehicle: saline 91 % of control | dose: 3000.0 micrograms/kg/injection, schedule: Q01DX009 (ip), vehicle: saline 100 % of control

O=C1NC2(CCCCC2)C(=O)N1CO
inactive: dose: 25.0 mg/kg/injection, schedule: Q01DX005 (ip), vehicle: saline with Tween-80 101 % of control and 109 % of control | dose: 50.0 mg/kg/injection, schedule: Q01DX005 (ip), vehicle: saline with Tween-80 100 % of control and 101 % of control | dose: 100.0 mg/kg/injection, schedule: Q01DX005 (ip), vehicle: saline with Tween-80 103 % of control and 108 % of control | dose: 200.0 mg/kg/injection, schedule: Q01DX005 (ip), vehicle: saline with Tween-80 116 % of control

CN1CCC(/C=C/c2ccccc2)CN1 (stereo not drawn) (tested in a mixture with another compound)
inactive: [1] 113 % of control | dose: 100.0 mg/kg/injection, schedule: Q01DX009 (ip), vehicle: saline 118 % of control

O=C(O)COCC(F)(F)C(F)(F)C(F)(F)COCC(=O)O
inactive: dose: 176.0 mg/kg/injection, schedule: Q04DX003 (ip), vehicle: saline 100 % of control | dose: 264.0 mg/kg/injection, schedule: Q04DX003 (ip), vehicle: saline 91 % of control | dose: 400.0 mg/kg/injection, schedule: Q04DX003 (ip), vehicle: saline 100 % of control

CCOC(=O)c1ccc(NC(=O)Nc2cccc3c(O)cccc23)cc1
inactive: [2] 89 % of control | [3] 96 % of control | [4] 88 % of control

Clc1nc(Cl)nc(N2CCCc3ccccc32)n1
inactive: [5] 89 % of control | [6] 96 % of control | [7] 93 % of control

C[C@H]1C(=O)OCN1C(=O)OCc1ccccc1
inactive: dose: 60.0 mg/kg/injection, schedule: Q01DX005 (ip), vehicle: saline with Tween-80 100 % of control | dose: 120.0 mg/kg/injection, schedule: Q01DX005 (ip), vehicle: saline with Tween-80 100 % of control | dose: 240.0 mg/kg/injection, schedule: Q01DX005 (ip), vehicle: saline with Tween-80 95 % of control

COCC1(C)CCCC2(C)C3=C(CCC(OC(C)=O)C3)CCC12 (stereo not drawn)
inactive: dose: 100.0 mg/kg/injection, schedule: Q04DX003 (ip), vehicle: suspension in saline 100 % of control | dose: 200.0 mg/kg/injection, schedule: Q04DX003 (ip), vehicle: suspension in saline 102 % of control | dose: 400.0 mg/kg/injection, schedule: Q04DX003 (ip), vehicle: suspension in saline 102 % of control

CCOC(=O)c1[nH]cnc1/N=N/N(C)CCO
inactive: dose: 100.0 mg/kg/injection, schedule: Q04DX003 (ip), vehicle: saline with Tween-80 109 % of control | dose: 200.0 mg/kg/injection, schedule: Q04DX003 (ip), vehicle: saline with Tween-80 113 % of control | dose: 400.0 mg/kg/injection, schedule: Q04DX003 (ip), vehicle: saline with Tween-80 118 % of control

O=C(/C=C/c1ccco1)C1C(=O)CCC1=O
inactive: dose: 50.0 mg/kg/injection, schedule: Q01DX005 (ip), vehicle: Klucel + Tween-80 98 % of control | dose: 100.0 mg/kg/injection, schedule: Q01DX005 (ip), vehicle: Klucel + Tween-80 104 % of control

Cc1ccccc1-c1nc2c3ccccc3c3ccccc3c2[nH]1
inactive: [8] 103 % of control | [9] 96 % of control | [10] 100 % of control

NC(=O)N1CCC2c3ccccc3NC(=S)N21 (stereo not drawn)
inactive: [11] 102 % of control | [12] 99 % of control | [13] 99 % of control

c1cc[c]([Sn]([NH]c2ncnc3[nH]cnc23)([NH]c2ncnc3[nH]cnc23)[c]2ccccc2)cc1
inactive: [14] 123 % of control
active: dose: 100.0 mg/kg/injection, schedule: Q01DX009 (ip), vehicle: Klucel (hydroxypropylcellulose) (HPC) 196 % of control

CC1(C)NC(=O)N(Br)C1=O
inactive: [5] 104 % of control | [6] 100 % of control | [7] 104 % of control

C/C=C1\CN2CCC34c5ccccc5N(C(C)=O)C3C(C=O)C1CC24 (stereo not drawn)
inactive: dose: 7.88 mg/kg/injection, schedule: Q01DX005 (ip), vehicle: saline + Tween-80 + alcohol 101 % of control | dose: 15.75 mg/kg/injection, schedule: Q01DX005 (ip), vehicle: saline + Tween-80 + alcohol 109 % of control | dose: 31.5 mg/kg/injection, schedule: Q01DX005 (ip), vehicle: saline + Tween-80 + alcohol 103 % of control | dose: 63.0 mg/kg/injection, schedule: Q01DX005 (ip), vehicle: saline + Tween-80 + alcohol 103 % of control

CC1C(=O)C23CCC4C5(C)CCCC4(C4OCCN4C5)C2CCC1C3 (stereo not drawn)
inactive: dose: 1.0 mg/kg/injection, schedule: Q01DX009 (ip), vehicle: Klucel (hydroxypropylcellulose) (HPC) 99 % of control | dose: 2.0 mg/kg/injection, schedule: Q01DX009 (ip), vehicle: Klucel (hydroxypropylcellulose) (HPC) 97 % of control | dose: 4.0 mg/kg/injection, schedule: Q01DX009 (ip), vehicle: Klucel (hydroxypropylcellulose) (HPC) 98 % of control | dose: 8.0 mg/kg/injection, schedule: Q01DX009 (ip), vehicle: Klucel (hydroxypropylcellulose) (HPC) 97 % of control

O=[N+]([O-])c1ccc(O)c(O)c1
inactive: [14] 100 % of control | dose: 25.0 mg/kg/injection, schedule: Q01DX009 (ip), vehicle: saline 108 % of control | [1] 98 % of control

O=C(O)CCSC(=S)NN1CCN(NC(=S)SCCC(=O)O)CC1
inactive: [2] 108 % of control | [3] 100 % of control | [4] 96 % of control

CCOC(=O)C=C1CCC2(CC1)SCCS2
inactive: dose: 100.0 mg/kg/injection, schedule: Q01DX001 (ip), vehicle: other 104 % of control | dose: 200.0 mg/kg/injection, schedule: Q01DX001 (ip), vehicle: other 114 % of control | dose: 400.0 mg/kg/injection, schedule: Q01DX001 (ip), vehicle: other 117 % of control

CCC(C)C(NC(=O)C(Cl)Cl)C(=O)O (stereo not drawn)
inactive: [8] 96 % of control | [9] 96 % of control | [10] 99 % of control

COC1CCC2(C)C(=CCC3C2CCC2(C)C(OCCOS(=O)(=O)c4ccc(C)cc4)CCC32)C1 (stereo not drawn)
inactive: [11] 101 % of control | [12] 106 % of control | [13] 100 % of control

O=NN(CCCl)C(=O)Nc1ccc(I)cc1
active: dose: 3.0 mg/kg/injection, schedule: Q01DX009 (ip), vehicle: saline with Tween-80 154 % of control | dose: 4.5 mg/kg/injection, schedule: Q01DX009 (ip), vehicle: saline with Tween-80 163 % of control | dose: 6.25 mg/kg/injection, schedule: Q04DX003 (ip), vehicle: saline with Tween-80 154 % of control | dose: 11.0 mg/kg/injection, schedule: Q01DX009 (ip), vehicle: saline with Tween-80 150 % of control and 152 % of control | dose: 12.5 mg/kg/injection, schedule: Q04DX003 (ip), vehicle: saline with Tween-80 163 % of control | dose: 16.5 mg/kg/injection, schedule: Q01DX009 (ip), vehicle: saline with Tween-80 154 % of control and 157 % of control | dose: 25.0 mg/kg/injection, schedule: Q01DX009 (ip), vehicle: saline with Tween-80 152 % of control and 154 % of control and 163 % of control | dose: 25.0 mg/kg/injection, schedule: Q04DX003 (ip), vehicle: saline sonified 150 % of control | dose: 37.5 mg/kg/injection, schedule: Q01DX009 (ip), vehicle: saline with Tween-80 171 % of control and 177 % of control | [5] 200 % of control | dose: 50.0 mg/kg/injection, schedule: Q04DX003 (ip), vehicle: saline sonified 183 % of control
